Laboratory results reported in patent US4065575A, “3-Aminomethyl derivatives of 4-chromanone” (Joullie International, priority 1975, dated 1977).
Entries after “also recorded” stand apart in the source; their conditions may differ. Counter-ions that a name gives are not always drawn.

Tests used:
[1] = system: isolated duodenum of a rat; assay: Musculotropic spasmolytic action on the isolated duodenum of a rat (barium chloride contraction); details: in words
Experimental: The experiments are carried out in accordance with the method of Magnus R. (Arch. ges. Physiol. 1904, 102, 123) on the isolated duodenum of a rat, surviving in oxygenated Tyrode liquid and kept at 38° C. The tonus and the pendular movements of the duodenum were recorded by means of a strain gauge on an electronic polygraph.
The inherent action of the products, and the antagonism exerted against the musculotropic contraction-inducing action of barium chloride was examined. Papaverine is used as the reference substance.

[2] = Acute toxicity in mice (LD 50); format: in vivo; details: mouse, in vivo, mice, 15 days observation
Experimental: (§1) The study is carried out on batches of 5 Swiss female mice of the NMRI Han. strain. The products are administered either intravenously (into the caudal vein) in solution in a 9 g..permill. sodium chloride solution, or orally (probang) in suspension in a 10% solution of gum arabic.
(§2) The animals are observed for the 15 days following the administration of the products.
(§3) The LD 50 values are calculated by the method of Karber and Behrens (Arch. Exp. Pathol. Pharm. 177, 1935, page 379).

[3] = system: isolated auricle of a rabbit; assay: Peripheral vasomotoricity, isolated and perfused auricle of a rabbit; details: for activation at 0.0001 mg / activation at 0.001 mg / activation at 0.01 mg / activation at 0.1 mg: Oryctolagus cuniculus, read-out: Maximum variations in the flow rate; for activation at 0.0001 mg: dose 0.1 μg.; for activation at 0.001 mg: dose 1 μg.; for activation at 0.01 mg: dose 10 μg.; for activation at 0.1 mg: dose 100 μg.
Experimental: The flow rate of the liquid issuing from the veins is recorded by electronic contact on a polygraph. The products to be studied are injected at increasing doses into the perfusion tube and their actions are compared to that of isoxsuprine used as the reference substance.
The results, collected in Table No. III, are expressed in the maximum percentage increase of the flow rate at the various doses used.

[4] = Cardiovascular action in dogs; format: in vivo, male Beagle dogs
Experimental: Male Beagle dogs weighing 9 to 12 kg. were anaesthetised by intrasaphenous injection of a 2% solution of chloralose in physiological solution, at a dose of 100 mg./kg.
The anaesthesia is maintained by slow perfusion of 5% pentobarbital (1.2 ml./hour).
The animals are tracheotomised and placed under assisted respiration by means of a Bird respirator. Their oxygenation and their acid-base equilibrium are controlled by determination of the pH, the pCO2 and the pO2 on blood samples taken from a collateral of the brachial artery (pH/gas analyser for blood, IL model 213/227).
The different parameters are recorded on a polygraph.

[5] = system: hypertensive effects of electrical stimulation, adrenaline and noradrenaline; assay: α-Sympatholytic effects in amyeliated rats; format: in vivo; details: for % variation of the hypertensive effects obtained with adrenaline: adrenaline 1.25 to 2.5 μg./kg.; for % variation of the hypertensive effects obtained with noradrenaline: noradrenaline 1.25 to 2.5 μg./kg.
Description: The α-sympatholytic effects of LJ 1052 and LJ 1053 are compared with those of isoxsuprine in amyeliated rats which have been prepared by a method derived from those of Shipley and Tilden (Proc. soc. Exp. Biol. Med. 1947, 64, 453-455) and of Gillespie and Muir (Br. J. Pharmac. Chemother. 1967, 30, 78-87).
The effects on the blood pressure of electrical stimulation of the thoracolumbar sympathic nerve (rectangular signals = voltage 20 to 40 volts; width 2 m. sec; frequency 10 secs.; duration 5 to 10 secs.) and of injections of adrenaline (1.25 to 2.5 μg./kg.) and of noradrenaline (1.25 to 2.5 μg./kg.) are determined before and after injection of the products tested.

mice = assay: Acute toxicity in mice (LD 50); format: in vivo; details: intravenous; in words
Experimental: as §1, §2, §3

platelet aggregation = assay: Anti-platelet-aggregation in vitro; format: cell-based; details: in words
ADP platelet aggregation = assay: ADP aggregation test; format: cell-based; details: in words
[6] = dose 50 g./kg. (so in the source)
[7] = dose 100 g./kg. (so in the source)
[8] = dose 500 g./kg. (so in the source)
[9] = dose 2,500 g./kg. (so in the source)
[10] = 0.04 mg./kg. i.v. (1/1,000 LD 50)
[11] = 0.04 mg./kg. i.v. (1/1,000 LD 50), first or only phase

Question: For `CCCCCNCC1COc2ccccc2C1=O` (stereo not drawn) [LJ 1046, 3-(n-Pentylaminomethyl)-4-chromanone hydrochloride], which “musculotropic spasmolytic action compared with papaverine / within the series” value [1] is on record?
Answer: the most active

Question: What about the LD50 at 360 h ([2]; intravenous administration) of the same compound?
Answer: 18 mg/kg

Question: And the LD50 at 360 h ([2]; oral administration)?
Answer: 237 mg/kg

Question: What about the activation at 0.0001 mg [3] of the same compound?
Answer: 38%

Question: And the activation at 0.001 mg [3]?
Answer: 29%

Question: And the activation at 0.01 mg [3]?
Answer: 61%

Question: What about the activation at 0.1 mg [3] of the same compound?
Answer: 77%

Question: What about the “maximum increases in the flow rate” value ([3]; all doses (0.1 to 100 μg.)) of the same compound?
Answer: ≤ 100%

Question: What about the “FF (mean flow rate of the femoral artery), maximum per cent variation” value ([4]; 0.36 mg./kg. i.v. (1/50 LD 50)) of the same compound?
Answer: +100%

Question: And the “FF, duration of action” value ([4]; 0.36 mg./kg. i.v. (1/50 LD 50))?
Answer: > 20 min

Question: What about the “Hb (heart beat), maximum per cent variation” value ([4]; 0.36 mg./kg. i.v. (1/50 LD 50)) of the same compound?
Answer: +30%

Question: What about the “Hb, duration of action” value ([4]; 0.36 mg./kg. i.v. (1/50 LD 50)) of the same compound?
Answer: > 20 min

Question: And the “LVP (left ventricular pressure), maximum per cent variation” value ([4]; 0.36 mg./kg. i.v. (1/50 LD 50))?
Answer: -20%

Question: And the “LVP, duration of action” value ([4]; 0.36 mg./kg. i.v. (1/50 LD 50))?
Answer: > 20 min

Question: What about the “Mean AP, duration of action” value ([4]; 0.36 mg./kg. i.v. (1/50 LD 50)) of the same compound?
Answer: > 20 min

Question: And the “Mean AP, maximum per cent variation” value ([4]; 0.36 mg./kg. i.v. (1/50 LD 50))?
Answer: -36%

Question: What about the “dLVP/dt, duration of action” value ([4]; 0.36 mg./kg. i.v. (1/50 LD 50)) of the same compound?
Answer: > 20 min

Question: What about the “dLVP/dt, maximum per cent variation” value ([4]; 0.36 mg./kg. i.v. (1/50 LD 50)) of the same compound?
Answer: +43%

Question: Which results are given for `COCCNCC1COc2ccccc2C1=O` (stereo not drawn) [LJ 1052, 3-(2-Methoxyethylaminomethyl)-4-chromanone hydrochloride]?
Answer: % variation of the hypertensive effects obtained with electrical stimulation [5, 6]: 0%; % variation of the hypertensive effects obtained with adrenaline [5, 6]: -15%; % variation of the hypertensive effects obtained with noradrenaline [5, 6]: -11%; % variation of the hypertensive effects obtained with electrical stimulation [5, 7]: 0%; % variation of the hypertensive effects obtained with adrenaline [5, 7]: -28%; % variation of the hypertensive effects obtained with noradrenaline [5, 7]: -12%; % variation of the hypertensive effects obtained with electrical stimulation [5, 8]: -20%; % variation of the hypertensive effects obtained with adrenaline [5, 8]: -77%; % variation of the hypertensive effects obtained with noradrenaline [5, 8]: -38%; % variation of the hypertensive effects obtained with electrical stimulation [5, 9]: -80%; % variation of the hypertensive effects obtained with adrenaline [5, 9]: -77%; % variation of the hypertensive effects obtained with noradrenaline [5, 9]: -50%; α-sympatholytic effect, comparison ([5]; same doses, in words): less α-sympatholytic than LJ 1053 and isoxsuprine; intravenous LD 50 in mice (comparison of three products) (mice): practically identical; LD50 at 360 h ([2]; intravenous administration): 47 mg/kg; LD50 at 360 h ([2]; oral administration): 475 mg/kg; activation at 0.0001 mg [3]: 79%; activation at 0.001 mg [3]: 77%; activation at 0.01 mg [3]: 100%; activation at 0.1 mg [3]: 150%; duration of the effects / of the action ([3]; at the highest doses): ≥ 30 min; peripheral vasodilatory action ([3]; in words, hydrochloride): great; also recorded: as active as isoxsuprine; also recorded: great even at very low doses; anti-platelet-aggregation properties (platelet aggregation): marked anti-platelet-aggregation properties in vitro; anti-aggregation activity compared with adenosine (ADP platelet aggregation): almost as active as adenosine; Diastolic AP, duration of action [4, 10]: 2 min; Diastolic AP, maximum per cent variation [4, 10]: -29%; FF, duration of action [4, 10]: 30 min; Hb (heart beat), maximum per cent variation [4, 10]: +14%; Hb, duration of action [4, 10]: 25 min; LVP, duration of action [4, 10]: 25 min; Mean AP, duration of action [4, 10]: 2 min; Mean AP, maximum per cent variation [4, 10]: -25%; Systolic AP, duration of action [4, 10]: 30 min; Systolic AP, maximum per cent variation [4, 10]: +13%; LVP (left ventricular pressure), maximum per cent variation [4, 11]: +9%; dLVP/dt, maximum per cent variation [4, 11]: +34%; dLVP/dt, duration of action ([4]; 0.04 mg./kg. i.v. (1/1,000 LD 50), only phase): 30 min; cardiovascular action compared with isoxsuprine ([4]; in words): comparable to or even greater than that of isoxsuprine; femoral flow rate ([4]; low doses, in words): activity comparable to that of isoxsuprine
